In ChEMBL document CHEMBL3045091, “Synthesis and antimicrobial activities of some new 5-((3-(aryl)-1-phenyl-1H-pyrazol-4-yl)methylene)-3-phenylthiazolidine-2,4-diones” (2012):
Converted amounts (≈) assume the structure as drawn. The source made the active and inactive calls. The rule behind the calls is not given here.

Tests used:
Staphylococcus aureus [1] = experiment: Antibacterial activity against Staphylococcus aureus MTCC 96 at 4 mg/ml after 24 hr by agar well diffusion method; format: functional; conditions: MTCC 96, 24 h, read-out: DIZ
Pseudomonas aeruginosa [2] = conditions: MTCC 741, 4 mg/ml
Description: (§1) Antibacterial activity against Pseudomonas aeruginosa MTCC 741 at 4 mg/ml after 24 hr by agar well diffusion method

Escherichia coli = experiment: Antibacterial activity against Escherichia coli MTCC 1652 at 4 mg/ml after 24 hr by agar well diffusion method; format: functional, organism-based
Bacillus subtilis [3] = experiment: Antibacterial activity against Bacillus subtilis MTCC 121 at 4 mg/ml after 24 hr by agar well diffusion method; format: functional; conditions: MTCC 121, 24 h, read-out: DIZ
Aspergillus niger = experiment: Antifungal activity against Aspergillus niger after 7 days by poisoned food technique; format: functional
Bacillus subtilis [4] = experiment: Antibacterial activity against Bacillus subtilis MTCC 121 after 24 hr by macro dilution tube method; format: functional; conditions: MTCC 121, 24 h
Aspergillus flavus = experiment: Antifungal activity against Aspergillus flavus after 7 days by poisoned food technique; format: functional
Staphylococcus aureus [5] = experiment: Antibacterial activity against Staphylococcus aureus MTCC 96 after 24 hr by macro dilution tube method; format: functional; conditions: MTCC 96, 24 h
Pseudomonas aeruginosa [6] = experiment: microbe, parasite or virus in culture; conditions: MTCC 741, 24 h, read-out: DIZ
Description: as §1

Compound	zone of inhibition at 4000 µg/mL (Staphylococcus aureus [1])	DIZ (Pseudomonas aeruginosa [2])	diameter of the inhibition zone (DIZ) (Escherichia coli)	zone of inhibition at 4000 µg/mL (Bacillus subtilis [3])	growth inhibition (GI) (Aspergillus niger)	MIC (Bacillus subtilis [4])	growth inhibition (GI) (Aspergillus flavus)	MIC (Staphylococcus aureus [5])	zone of inhibition at 4000 µg/mL (Pseudomonas aeruginosa [6])
COc1ccc(-c2nn(-c3ccccc3)cc2/C=C2\SC(=O)N(c3ccccc3)C2=O)cc1	18.6 mm	inactive	inactive	16.6 mm	50%	128 µg/mL (≈ 282 µM)	66.6%	128 µg/mL (≈ 282 µM)	–
OC(Cn1cncn1)(Cn1cncn1)c1ccc(F)cc1F [FLUCONAZOLE]	–	–	–	–	81.1%	–	77.7%	–	–
O=C1S/C(=C\c2cn(-c3ccccc3)nc2-c2ccc(F)cc2)C(=O)N1c1ccccc1	19.3 mm	inactive	inactive	20.6 mm	55.5%	32 µg/mL (≈ 72.5 µM)	55.5%	128 µg/mL (≈ 290 µM)	–
O=C1S/C(=C\c2cn(-c3ccccc3)nc2-c2ccc([N+](=O)[O-])cc2)C(=O)N1c1ccccc1	20.6 mm	inactive	inactive	18.3 mm	50%	128 µg/mL (≈ 273 µM)	61.1%	64 µg/mL (≈ 137 µM)	–
O=C1S/C(=C\c2cn(-c3ccccc3)nc2-c2ccc(O)cc2)C(=O)N1c1ccccc1	20.3 mm	inactive	inactive	18.3 mm	50%	128 µg/mL (≈ 291 µM)	44.4%	64 µg/mL (≈ 146 µM)	–
Cc1ccc(-c2nn(-c3ccccc3)cc2/C=C2\SC(=O)N(c3ccccc3)C2=O)cc1	18.3 mm	inactive	inactive	19.6 mm	44.4%	64 µg/mL (≈ 146 µM)	50%	128 µg/mL (≈ 293 µM)	–
O=C1S/C(=C\c2cn(-c3ccccc3)nc2-c2ccc(Br)cc2)C(=O)N1c1ccccc1	21.6 mm	inactive	inactive	20.6 mm	38.8%	32 µg/mL (≈ 63.7 µM)	55.5%	32 µg/mL (≈ 63.7 µM)	–
O=C(O)c1cn(C2CC2)c2cc(N3CCNCC3)c(F)cc2c1=O [CIPROFLOXACIN]	26 mm	–	–	24 mm	–	5 µg/mL (≈ 15.1 µM)	–	5 µg/mL (≈ 15.1 µM)	22 mm
O=C1S/C(=C\c2cn(-c3ccccc3)nc2-c2ccc(Cl)cc2)C(=O)N1c1ccccc1	20.6 mm	inactive	inactive	18.3 mm	55.5%	128 µg/mL (≈ 280 µM)	61.1%	64 µg/mL (≈ 140 µM)	–
O=C1S/C(=C\c2cn(-c3ccccc3)nc2-c2ccccc2)C(=O)N1c1ccccc1	18.6 mm	inactive	inactive	19.3 mm	55.5%	64 µg/mL (≈ 151 µM)	50%	128 µg/mL (≈ 302 µM)	–
O=C1S/C(=C\c2cn(-c3ccccc3)nc2-c2cccs2)C(=O)N1c1ccccc1	22.3 mm	inactive	inactive	21.6 mm	50%	32 µg/mL (≈ 74.5 µM)	33.3%	32 µg/mL (≈ 74.5 µM)	–
